# Experimental data reported in US10273517B2 (The Board of Regents of the University of Oklahoma, priority 2011, dated 2019).
# Entries after “also recorded” stand apart in the source; their conditions may differ.
# Key:
# [1] = test system: recombinant Comamonas testosteronan synthase (CtTS); assay: Radiolabeled sugar incorporation assay, divalent cation specificity of CtTS; type: biochemical, Comamonas testosteroni KF-1; conditions: 5 mM Mg2+ or 5 mM Mn2+ or 2 mM EDTA; 30 minutes at 22° C.
# Experimental: Radiolabeled sugar incorporation assays were performed (30 minutes at 22° C., as described in methods) in the presence of 5 mM Mg^2+ or 5 mM Mn^2+ or 2 mM EDTA.
# (§1) Radiolabeled sugar incorporation assays (25 μl, 30 minutes at 22° C.) were performed using clarified lysates (60 μg total protein) in the presence of 0.05 mM UDP-GlcUA or UDP-GlcNAc as carrier with UDP-[^3H]GlcUA or UDP-[^3H]GlcNAc (0.1 μCi/assay) (NEN Perkin Elmer, Waltham, Mass.) with various unlabeled UDP-sugars (1 mM) or no second sugar as a negative control. The reaction buffer was 50 mM Tris, pH 7.2, 5 mM MgCl2; these conditions were obtained after limited optimization trials. Certain reactions used acceptors (1 μg) to bypass de novo initiation, including HA, heparosan, or Ct polysaccharide (sonicated 10 minutes on ice to increase the number of termini).
# (§2) Reactions were incubated at the indicated temperatures for the times noted, and then stopped with 2% final SDS and separated by descending paper chromatography (65:35 ethanol/1 M ammonium acetate buffer, Whatman 3MM paper). This method enabled the separation of GAG polysaccharides with greater than ^˜14 sugar units, which remain at the origin, from smaller oligomers and unincorporated nucleotide sugars that migrate down the strip. The origin of the strip was cut out and subjected to liquid scintillation counting (BIOSAFE™, RPI Corp, Mt. Prospect, Ill.).
# [2] = test system: recombinant Comononas testosteroni synthase (CtTS); assay: Polymer grafting of testosteronan onto acceptors using CtTS (agarose gel, stoichiometric size control); type: biochemical, Comamonas testosteroni; conditions: acceptor 15 or 30 μM, monosaccharides/glycosides first extended step-wise with two UDP-sugars, Stains-all
# Experimental: The recombinant Comononas testosteroni synthase was incubated with both UDP-sugars and various acceptors (note: monosaccharides or glycosides first subjected to two extension steps via CtTS enzyme before adding both UDP sugars) OR ‘no acceptor’ in reaction buffer. The reactions were then subjected to agarose gel analysis with Stains-all dye detection. From left to right, the lanes are as follows: (1) HA LoLadder standard; (2) ‘no acceptor’ (de novo synthesis); (3) p-Nitrophenyl-β-D-glucuronide (15 μM); (4) p-Nitrophenyl-β-D-glucuronide (30 μM); (5) GlcUA (15 μM); (6) GlcUA (30 μM); (7) GlcNAc (15 μM); (8) GlcNAc (30 μM); (9) AFA=GlcUA-fluorescein-GlcUA (15 μM); (10) AFA (30 μM); (11) Hep4=base de-acetylated, nitrous acid, & reduced heparosan tetrasaccharide (15 μM); and (12) Hep4 (30 μM). Size control (i.e., differences in molecular weight between 15 and 30 μM) is noted with certain acceptors.
# The recombinant Comononas testosteroni synthase was incubated with both UDP-sugars and various acceptors OR ‘no acceptor’ in reaction buffer. From left to right in FIG. 21, the lanes are listed below in Table 3.
# For all acceptors except Hep4 and AFA, the final acceptor was produced in situ before elongation by extending step-wise with the next two appropriate UDP-sugars. For example, GlcUA was extended first with UDP-GlcNAc, then UDP-GlcUA (making a trisaccharide) before the complete polymerization reaction components (i.e., a mixture of many equivalents of UDP-GlcUA and UDP-GlcNAc together to allow the production of long polymer chains) were added. Two different concentrations of the acceptor were added (either 15 or 30 μM as noted) to test the effect of stoichiometric size control.
# [3] = test system: recombinant Comamonas testosteronan synthase (CtTS); assay: Radiolabeled sugar incorporation assay, donor sugar specificity of CtTS; type: biochemical, Comamonas testosteroni KF-1; conditions: unlabeled UDP-sugar 1 mM, clarified lysate, 30 minutes at 22° C.; for activity (incorporation of [3H]GlcUA) with the unlabeled UDP-sugar as second precursor: UDP-[3H]GlcUA tracer; for incorporation of [3H]GlcNAc with the unlabeled UDP-sugar as second precursor: UDP-[3H]GlcNAc tracer
# Experimental: FIG. 3 graphically depicts the donor specificity of CtTS.
# In order to determine the preferred hexosamine sugar donor utilized for putative GAG-like heteropolysaccharide biosynthesis, activity assays were performed with clarified lysates from recombinant bacteria expressing CtTS using two different UDP-sugars simultaneously in polymerization reactions in vitro. […] By further studying acceptor specificity and using GAG degrading enzymes that are specific for these GAGs, the nature of the polysaccharide formed by CtTS in vitro was characterized.
# as §1, §2
# [4] = test system: Streptomyces hyalurolyticus HA lyase; assay: GAG degrading enzyme challenge: HA lyase; type: in vitro ADME
# Description: (§3) Because of this finding, it is believed that while CtTS is able to utilize heparosan as an acceptor molecule due to a hypothetical shared structural feature, this GAG is not the native substrate.
# [5] = test system: Proteus vulgaris chondroitinase ABC; assay: GAG degrading enzyme challenge: chondroitinase ABC; type: in vitro ADME
# Description: as §3
# heparin lyase I = heparin lyase I (Pedobacter heparinus, UniProt Q05819); assay: GAG degrading enzyme challenge: heparin lyase I; type: in vitro ADME
# heparin lyase I, sequence (Q05819 22-384): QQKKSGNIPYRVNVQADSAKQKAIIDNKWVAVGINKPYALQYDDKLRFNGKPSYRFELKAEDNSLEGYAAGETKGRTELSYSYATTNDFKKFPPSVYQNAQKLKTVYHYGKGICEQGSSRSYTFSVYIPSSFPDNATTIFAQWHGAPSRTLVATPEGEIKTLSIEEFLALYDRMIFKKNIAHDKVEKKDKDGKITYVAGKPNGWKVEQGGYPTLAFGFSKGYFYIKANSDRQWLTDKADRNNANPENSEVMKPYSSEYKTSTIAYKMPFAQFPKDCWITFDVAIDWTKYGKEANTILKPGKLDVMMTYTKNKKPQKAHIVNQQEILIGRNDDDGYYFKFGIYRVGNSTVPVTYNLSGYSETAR
# Description: as §3
# [6] = test system: recombinant Comamonas testosteronan synthase (CtTS); assay: Radiolabeled sugar polymerization assay, acceptor specificity of CtTS; type: biochemical, Comamonas testosteroni KF-1; conditions: radiolabeled UDP-sugars; acceptor 1 μg
# Experimental: FIG. 4 graphically depicts the acceptor specificity of CtTS. Extension of exogenous polysaccharide by recombinant Comamonas testosteronan synthase was measured. Activity assays were performed with radiolabeled UDP-sugars in the presence of hyaluronan, unsulfated chondroitin, heparosan or sonicated Comamonas polysaccharide.
# Acceptor Specificity of CtTS: To identify the acceptor preference of CtTS, radiolabeled sugar polymerization assays were performed in the presence of various GAG acceptors. In many, but not all, GAG synthases, exogenous cognate polysaccharide will increase the signal in sugar incorporation assays by bypassing the slower de novo initiation phase (DeAngelis et al., 1999 and 2004); the elongation phase is much more rapid; thus, higher activity is observed. Typically, non-cognate GAG polymers with different glycosidic linkage patterns are very poor or non-functional acceptors for the known GAG synthases in vitro. Hyaluronan, unsulfated chondroitin and heparosan as well as polysaccharide extract from C. testosteroni were tested. Hyaluronan and heparosan tetrasaccharides were also tested for their abilities to act as acceptors. […] To confirm that CtTS is able to directly extend a heparosan acceptor so as to rule out an artifactual stabilizing or conformational effect in the radioassays, an ^125I-labeled tetrasaccharide heparosan acceptor was also tested in vitro in the presence of only UDP-GlcNAc for single sugar addition, or UDP-GlcNAc and UDP-GlcUA for polymerization.
# as §1, with “Certain reactions used acceptors (1 μg) to bypass de novo initiation, including HA, heparosan, or Ct polysaccharide (sonicated 10 minutes on ice to increase the number of termini).” left out
# Target sequence in this assay (as listed by the source): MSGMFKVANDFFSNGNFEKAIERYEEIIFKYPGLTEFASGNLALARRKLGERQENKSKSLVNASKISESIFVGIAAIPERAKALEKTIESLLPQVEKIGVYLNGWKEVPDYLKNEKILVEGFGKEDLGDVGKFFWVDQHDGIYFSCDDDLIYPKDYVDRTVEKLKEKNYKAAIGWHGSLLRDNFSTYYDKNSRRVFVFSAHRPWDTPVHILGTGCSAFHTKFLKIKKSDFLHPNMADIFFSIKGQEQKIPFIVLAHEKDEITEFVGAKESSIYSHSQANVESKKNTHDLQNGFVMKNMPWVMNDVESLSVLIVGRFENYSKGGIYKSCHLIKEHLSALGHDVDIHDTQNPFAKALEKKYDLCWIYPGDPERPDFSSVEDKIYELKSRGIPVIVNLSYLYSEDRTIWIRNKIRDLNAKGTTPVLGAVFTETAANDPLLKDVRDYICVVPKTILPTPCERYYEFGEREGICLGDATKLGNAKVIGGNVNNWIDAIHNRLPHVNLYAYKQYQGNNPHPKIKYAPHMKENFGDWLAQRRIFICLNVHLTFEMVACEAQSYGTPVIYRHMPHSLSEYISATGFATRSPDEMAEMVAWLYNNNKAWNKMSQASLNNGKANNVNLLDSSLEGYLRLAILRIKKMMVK
compound,measurement,setting,value
O=C(O)CN(CCN(CC(=O)O)CC(=O)O)CC(=O)O [EDTA],GT activity of CtTS in the presence of divalent cation or chelator,[1],eradicated the polymerization signal
"CC(=O)N[C@H]1C(O)O[C@H](CO)[C@@H](O)[C@@H]1O (stereo partly shown) [GlcNAc, N-acetylglucosamine]",stoichiometric size control of testosteronan product by acceptor,[2],did not
"O=C[C@H](O)[C@@H](O)[C@H](O)[C@H](O)C(=O)O [GlcUA, glucuronic acid]",stoichiometric size control of testosteronan product by acceptor,[2],allowed efficient size control
[Mg+2] [Mg^2+],GT activity of CtTS in the presence of divalent cation or chelator,[1],roughly twice as for Mn^2+
[Mn+2] [Mn^2+],GT activity of CtTS in the presence of divalent cation or chelator,[1],supported GT activity
CC(=O)N[C@H]1[C@@H](OP(=O)(O)OP(=O)(O)OC[C@H]2O[C@@H](n3ccc(=O)[nH]c3=O)[C@H](O)[C@@H]2O)O[C@H](CO)[C@H](O)[C@@H]1O [UDP-GalNAc],activity (incorporation of [3H]GlcUA) with the unlabeled UDP-sugar as second precursor,[3],not
O=C(O)[C@H]1O[C@H](OP(=O)(O)OP(=O)(O)OC[C@H]2O[C@@H](n3ccc(=O)[nH]c3=O)[C@H](O)[C@@H]2O)[C@H](O)[C@@H](O)[C@H]1O [UDP-GalUA],incorporation of [3H]GlcNAc with the unlabeled UDP-sugar as second precursor,[3],only the reactions containing UDP-GlcUA showed significant incorporation
CC(=O)N[C@H]1[C@@H](OP(=O)(O)OP(=O)(O)OC[C@H]2O[C@@H](n3ccc(=O)[nH]c3=O)[C@H](O)[C@@H]2O)O[C@H](CO)[C@@H](O)[C@@H]1O [UDP-GlcNAc],activity (incorporation of [3H]GlcUA) with the unlabeled UDP-sugar as second precursor,[3],Significant activity
O=C(O)[C@H]1O[C@H](OP(=O)(O)OP(=O)(O)OC[C@H]2O[C@@H](n3ccc(=O)[nH]c3=O)[C@H](O)[C@@H]2O)[C@H](O)[C@@H](O)[C@@H]1O [UDP-GlcUA],incorporation of [3H]GlcNAc with the unlabeled UDP-sugar as second precursor,[3],significant incorporation
O=C(O)[C@@H]1O[C@@H](OP(=O)(O)OP(=O)(O)OC[C@H]2O[C@@H](n3ccc(=O)[nH]c3=O)[C@H](O)[C@@H]2O)[C@H](O)[C@@H](O)[C@@H]1O [UDP-IdoUA],incorporation of [3H]GlcNAc with the unlabeled UDP-sugar as second precursor,[3],only the reactions containing UDP-GlcUA showed significant incorporation
"O=C(O)[C@H]1O[C@@H](Oc2ccc([N+](=O)[O-])cc2)[C@H](O)[C@@H](O)[C@@H]1O [p-Nitrophenyl-D-glucuronide, p-Nitrophenyl-β-D-glucuronide]",stoichiometric size control of testosteronan product by acceptor,[2],allowed efficient size control
GlcUA-fluorescein-GlcUA [AFA],stoichiometric size control of testosteronan product by acceptor,[2],efficient size control
"[-4-D-GlcUA-α1,4-D-GlcNAc-α1-]n [synthetic polysaccharide]",sensitivity to degradation by Streptomyces hyalurolyticus HA lyase,[4],insensitive to degradation
same,sensitivity to degradation by Proteus vulgaris chondroitinase ABC,[5],insensitive to degradation
same,sensitivity to degradation by heparin lyase I,heparin lyase I,insensitive to degradation
"[-4-D-GlcUA-α1,4-D-GlcNAc-α1-]n [testosteronan]",sensitivity to degradation by heparin lyase I,heparin lyase I,did not digest
"[-4-D-GlcUA-β1,3-D-GlcNAc-β1-]n [hyaluronan]",use of exogenous GAG polysaccharide as acceptor by CtTS,[6],not
"[-4-D-GlcUA-β1,4-D-GlcNAc-α1-]n [heparosan]",use of exogenous GAG polysaccharide as acceptor by CtTS,[6],able to use; also recorded: capable of utilizing
chondroitin,use of exogenous GAG polysaccharide as acceptor by CtTS,[6],not
